How the values were obtained:
[1] = tested on: circulating apoptotic ECs; assay: Flow cytometry (FACS) of circulating apoptotic ECs in peripheral blood of patients with stable angina treated prospectively; format: in vivo, human
Experimental: (§1) In addition, 8 patients with stable angina were prospectively treated with atorvastatin (20 mg/day, four weeks).
The lysis of erythrocytes in 10 ml peripheral venous heparin blood was performed with the aid of a commercially available solution for lysis (Becton Dickinson, BD). The circulating ECs were then examined by means of 4-channel-FACS (Fluorescence Activated Cell Sorting)-analysis, using a suitably modified protocol according to the method of Mancuso et al. and Monestiroli et al. (Mancuso P., Burlini A., Pruneri G., Goldhirsch A., Martinelli G., Bertolini F. Blood. 2001; 97: 3658-3661; Monestiroli S., Mancuso P., Burlini A., Pruneri G., Dell'Agnola C., Gobbi A., Martinelli G., Bertolini F. Cancer Res. 2001; 61: 4341-4344) (FIG. 1). First, in the representation of the forward/sideward-scatter a regional window was defined, in order to exclude platelets and debris from the further analyses. Amongst the remaining cells, the number of the CD45^+-signals that were identified with a direct perCP-conjugated monoclonal antibody against human CD45 (BD) was quantified, in order to normalise each measured cellular population in view of the total number of the leukocytes in relation to the number of WBCs. In order to specifically detect mature ECs, only CD45^−-cells were analysed further by double staining with antibodies against the EC-specific epitope CD146 (MeI-CAM, MUC18, S-Endo-1; Shih I. M. J Pathol. 1999; 189: 4-11) (monoclonal mouse-antibody, directly FITC-conjugated; Chemicon) and against von Willebrandt-factor (vWF) (rabbit, Oncogene), followed by a PE-conjugated anti-rabbit secondary antibody. Alternatively, human KDR was detected with an anti-KDR-antibody of the mouse (Sigma), followed by a PE-conjugated anti-mouse secondary antibody in addition to vWF. CD45^−/CD146^+/vWF^+ or CD45^−/KDR^+/vWF^+-cells were defined as mature ECs. […]

[2] = tested on: LDL-cholesterol; assay: Serum lipid fractions (LDL-cholesterol) in patients with stable angina before and after treatment; format: in vivo, human
Experimental: as §1
In all patients serum was also collected at the time of examination for a determination of the concentrations of CRP and hsCRP (turbidimetric assay, Boehringer Mannheim and Ultrasensitive N Latex CRP Monotest, Behring, respectively) as well as serum lipid-fractions (Boehringer Mannheim).
Thus, it was prospectively examined whether a short-term treatment with atorvastatin (20 mg/day, four weeks) reduces the EC-apoptosis in patients with stable CAD.

## CC(C)c1c(C(=O)Nc2ccccc2)c(-c2ccccc2)c(-c2ccc(F)cc2)n1CC[C@@H](O)C[C@@H](O)CC(=O)O [atorvastatin]
[1]; patients with CAD, four week treatment period
  EC-apoptosis: profoundly reduces
[1]; patients with stable CAD (SA), n=8, 20 mg/day, four weeks, FIG. 3A
  number of circulating apoptotic ECs: significantly reduced
[1]; patients with stable CAD (SA), n=8, 20 mg/day, four weeks, FIG. 3B
  proportion of apoptotic ECs of the total number of circulating ECs: significantly reduced
[2]; n=8 patients with stable angina, after 20 mg/day for four weeks, pre value 155 ± 16, mean ± SEM
  LDL-cholesterol (mg/dl) post: 86 ± 13 mg/dL
[2]; patients with stable CAD, 20 mg/day, four weeks, p<0.02
  concentration of LDL-cholesterol: significantly reduced
